Data published in paper PMC12030627, “Radioiodinated Bicyclic RGD Peptide Derivatives for Enhanced Tumor Accumulation” (Pharmaceuticals, 2025).
Read-outs that look alike come from different tables or passages of the source. Starred links: 1 amine or outer side, 2 acyl side, 3 side chain; linkers in the order of their positions; H or OH if unused. Positions of bridges follow the written chain, without caps; N, C: chain ends. Non-standard residues stand in square brackets, D forms with d. Residues, ends and D or L forms follow the SMILES beside them. *: point of attachment. TBMB = c1c(C[*:1])cc(C[*:3])cc1C[*:2]; Palmitoyl = CCCCCCCCCCCCCCCC(=O)*; Benzoyl(3-I) = O=C(c1cccc(I)c1)*; 4Abz = Nc1ccc(C(=O)O)cc1

Columns and labels:
[1] = Octanol–water distribution coefficient (log D); type: physicochemical; settings: shake-flask 1-octanol/PBS(–) pH 7.4, 1.0 mL each (1:1), 40 kBq, vortexed 2 min, centrifuged 5000 rpm 5 min, radioactivity by γ-counter, mean of n = 4
Description: For log D determination, [^125I]bcRGD, [^125I]bcRGDpal, [^125I]bcRGDiba, or [^125I]bcRGDdimer (40 kBq) was dissolved in 1.0 mL PBS(–) (pH 7.4) and mixed with 1.0 mL 1-octanol (1:1, v/v). The mixture was vortexed for 2 min and centrifuged at 5000 rpm for 5 min. Radioactivity in 0.5 mL of each phase was measured using a γ-counter, and log D values were calculated based on the radioactivity distribution (n = 4).

[2] = Albumin binding, size-exclusion spin column elution after incubation with mouse plasma; type: in vitro ADME; settings: 37 kBq in 50 μL PBS(–) incubated 37 °C 10 min with 200 μL mouse plasma (male ddY); Sephadex G-50 Fine spin column, 2000 rpm 2 min; γ-counter; eluted/added radioactivity × 100
Description: To assess albumin binding, mouse plasma was obtained by centrifugation of whole blood from male ddY mice (9 weeks old). [^125I]bcRGD, [^125I]bcRGDpal, [^125I]bcRGDiba, or [^125I]bcRGDdimer (37 kBq) in 50 μL PBS(–) was incubated at 37 °C for 10 min with 200 μL of PBS(–), mouse plasma, or human serum albumin (HSA, 45 mg/mL in PBS(–); Wako Pure Chemical Industries, Osaka, Japan). The mixtures were applied to gel filtration spin columns (Sephadex G-50 Fine; Cytiva, Tokyo, Japan), centrifuged (2000 rpm, 2 min), and radioactivity in the eluted fraction was measured with a γ-counter. The high molecular weight fraction was calculated as the elution ratio = (radioactivity in elution)/(added radioactivity) × 100 (%).

[3] = Biodistribution in U-87 MG tumor-bearing mice; type: in vivo, BALB/c nu-nu mice; settings: mouse, total radioactivity, 2 h post-administration, tumor-bearing mice, comparator value, no method or n printed for this probe
Description: Animal experiments were performed in compliance with institutional animal care regulations, with the study protocol approved by the Experimental Animal Committee of Osaka Medical and Pharmaceutical University (Approval Numbers: 21–76, 22–76, and 23–76). Four-week-old male BALB/c nu-nu mice (Japan SLC, Shizuoka, Japan) were housed under a 12 h light/12 h dark cycle with free access to food and water. Tumor-bearing mice were established by suspending U-87 MG cells (2 × 10^6 cells/mouse) in PBS(–) and subcutaneously injecting 100 μL of the suspension into the right hind leg. For co-implantation models, A549 cells (2 × 10^6 cells/mouse) were suspended in PBS(–) and inoculated (100 μL) into the left hind leg of the same mice already inoculated with U-87 MG cells. Mice with tumor size approximately 10 mm in diameter, 4–5 weeks after inoculation, were used for biodistribution studies. Animals in which either tumor was not viable were excluded from the experiment.
U-87 MG-bearing mice (n = 42, 8–9 weeks old; 22–27 g) were randomly assigned into groups and administered [^125I]bcRGDpal or [^125I]bcRGDiba via intravenous injection (37 kBq in 100 μL of PBS containing 0.1% Tween 80 (PBS-T80)). At 5 min, 30 min, 1 h, 2 h, 6 h, 12 h, or 24 h post-injection, the mice were euthanized (n = 3 per time point). The heart, kidneys, liver, brain, pancreas, spleen, lung, small intestine, large intestine, muscle, skin, stomach, bone, and tumors were excised. Each organ’s weight and radioactivity were measured by a NaI well-type scintillation counter, and the % ID/g was calculated. To investigate the correlation between integrin expression and radioactivity accumulation, biodistribution at 2 h after administration of [^125I]bcRGDpal or [^125I]bcRGDiba was assessed in A549 and U-87 MG co-implantation mice (n = 5) using the same procedure. Additionally, co-implantation mice were injected with [^125I]bcRGDdimer (37 kBq/100 μL PBS-T80) and euthanized at 30 min, 2 h, and 4 h post-injection (n = 4 per time point), and % ID/g values were calculated as described above. The minimum sample size needed for the biodistribution study in U-87 MG-bearing mice was calculated using G Power software version 3.1.9.7. The calculation was based on a two-tailed test, with an effect size of 3.9, a significance level (α) of 0.05, and a statistical power (1 − β) of 0.8. […] The minimum required sample size for the biodistribution study in A549 and U-87 MG co-implantation mice was also calculated to be four animals per group (effect size = 2.5, α = 0.05, 1 − β = 0.8). To guarantee objective results, the experiment was carried out in a blinded manner. Specifically, drug administration and radioactivity measurements were conducted by different investigators to eliminate potential bias.

integrin αVβ3 / αVβ5 = settings: cited from earlier work
Description: A radiolabeled probe based on this bicyclic peptide, [^125I]bcRGD, was synthesized and shown to selectively accumulate in αVβ3-expressing cancer cells and xenograft models in mice. However, like many l ...

human serum albumin = target: T1, human serum albumin (human, UniProt P02768 25-609); experiment: SEC; [^125I]-peptide (37 kBq in 50 μL PBS(-)) with 200 μL HSA (45 mg/mL in PBS(-)), 37 °C, 10 min; Sephadex G-50 Fine gel filtration spin column, 2000 rpm, 2 min; radioactivity in the eluted high molecular weight fraction as % of that added; settings: both partners purified
T1 construct: human serum albumin, 45 mg/mL in PBS(-); also called HSA; source: bought: Wako Pure Chemical Industries

In the case of `CC(=O)N[C@@H](CCCCNC(=O)c1cccc(I)c1)C(=O)N1CCC[C@H]1C(=O)N1CCC[C@H]1C(=O)N1CCC[C@H]1C(=O)N[C@@H](CO)C(=O)NCC(=O)Nc1ccc(C(=O)N[C@@H](CO)C(=O)NCC(=O)N[C@H]2CSCc3cc4cc(c3)CSC[C@@H](NC(=O)[C@H](CCC(N)=O)NC(=O)[C@@H]3CCCN3C(=O)[C@H](Cc3c[nH]cn3)NC2=O)C(=O)N[C@@H](CCCNC(=N)N)C(=O)NCC(=O)N[C@@H](CC(=O)O)C(=O)N[C@@H](C(N)=O)CSC4)cc1` [[^125I]bcRGD, reference compound] (Ac-K(Benzoyl(3-I))PPPSG[4Abz]SGCHPQ[dC]RGD[dC]-NH2; linker 10-14-18 via TBMB), the logD [1] is reported as -2.02, the “Elution rate from size-exclusion resin (high molecular weight fraction), mouse plasma” value [2] is reported as 2% and the tissue uptake at 2 h ([3]; U-87 MG tumor, read-out: Tumor-accumulated radioactivity (U-87 MG)) is reported as 0.7 %ID/g. It also gave a tissue uptake at 2 h ([3]; blood, read-out: Blood radioactivity level) of 0.3 %ID/g.

For cilengitide, the “αVβ3/αVβ5 selectivity ratio (ratio of corresponding IC50 values)” value (integrin αVβ3 / αVβ5) is given as 4.7.

In the case of cyclo-(RGDfK), the “αVβ3/αVβ5 selectivity ratio (ratio of corresponding IC50 values)” value (integrin αVβ3 / αVβ5) is listed as 0.2.

For Palmitoyl-K((125I)3‑iodobenzoyl)PPPSG[4Abz]SGCHPQ[dC]RGD[dC]-NH2 (linker 10-14-18 via TBMB (inferred)) [[^125I]bcRGDpal], the “elution ratio (high molecular weight fraction) with HSA” value (human serum albumin) was 80%.

For {4‑(p-iodophenyl)butyryl}-K((125I)3‑iodobenzoyl)PPPSG[4Abz]SGCHPQ[dC]RGD[dC]-NH2 (linker 10-14-18 via TBMB (inferred)) [[^125I]bcRGDiba], the “elution ratio (high molecular weight fraction) with HSA” value (human serum albumin) was 60%.
